Test results reported in ChEMBL document CHEMBL1201862, “PubChem BioAssay data set” (2004).
The source made the active and inactive calls.

Tests used:
[1] = NIH-3T3 fibroblast cytotoxicity, dose response, cytotoxicity control, cell-based, fluorescence, Alamar Blue, secondary assay (AID 2327); format: functional;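 further: NIH-3T3 mouse fibroblasts cultured with fluconazole at 8 µg/mL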
[2] = decrease of insulin promoter-GFP reporter – imaging, high-content screening, mouse beta cells (AID 1628); format: functional; conditions: MIN6
[3] = MIN6 cell viability loss – mouse insulinoma, cytotoxicity control, dose response (AID 2122); format: functional;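 further: confirmatory high-throughput counterscreen run to flag cytotoxic compounds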
[4] = fluconazole-exposed Candida albicans growth modulators – fluorescence, retest, confirmation (AID 2467); format: functional, cell-based
[5] = Trypanosoma cruzi growth suppression in host cells – NIH3T3 host cells, beta-gal luminescence, confirmation (AID 2044); format: functional, cell-based;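 further: intracellular parasites grown in NIH/3T3 mouse fibroblasts as host cells; luminescent beta-galactosidase reporter signal from transgenic T. cruzi replicating inside host cells; inhibitors lower the luminescence signal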
[6] = NIH3T3 cell viability loss – ATP luminescence, mouse fibroblasts, counter-screen, dose response (AID 2010); format: functional, cell-based;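 further: cells exposed to compound for about 90 hours before reading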
[7] = molecular target: T1, Heat shock factor protein 1 (Mus musculus, UniProt P38532); assay: decrease of HSF1-responsive luciferase luminescence – cell-based, NIH3T3, dose retest, confirmation (AID 2382); format: functional;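 further: NIH3T3 fibroblasts with HSF1-driven luciferase reporter stressed by proteasome inhibitor MG132; luminescence from HSF1-driven luciferase expression after 8 hours of MG132 stress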
T1 sequence (P38532 whole entry): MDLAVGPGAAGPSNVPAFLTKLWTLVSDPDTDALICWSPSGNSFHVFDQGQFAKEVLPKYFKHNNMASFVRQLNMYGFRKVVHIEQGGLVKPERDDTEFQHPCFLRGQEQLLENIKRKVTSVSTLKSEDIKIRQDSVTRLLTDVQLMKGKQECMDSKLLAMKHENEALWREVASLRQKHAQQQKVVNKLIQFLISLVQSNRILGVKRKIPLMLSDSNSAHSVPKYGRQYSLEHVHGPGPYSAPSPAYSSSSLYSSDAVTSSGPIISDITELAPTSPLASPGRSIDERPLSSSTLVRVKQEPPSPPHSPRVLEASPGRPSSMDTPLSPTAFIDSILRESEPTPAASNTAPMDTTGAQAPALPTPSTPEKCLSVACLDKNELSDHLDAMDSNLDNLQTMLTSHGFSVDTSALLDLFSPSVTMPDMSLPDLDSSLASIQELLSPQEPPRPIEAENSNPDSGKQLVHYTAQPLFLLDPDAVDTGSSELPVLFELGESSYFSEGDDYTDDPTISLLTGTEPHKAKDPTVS

Escherichia coli [8] = assay: microbe, parasite or virus in culture
HeLa = assay: ATP-based viability loss in HeLa cells – cell-based, CellTiter-Glo luminescence, cherry-pick samples, cytotoxicity control for MITF activator project, dose response (AID 540259); format: functional; conditions: Homo sapiens
[9] = molecular target: Intestinal-type alkaline phosphatase (Mus musculus, UniProt P24822); assay: PubChem AID 488785; format: functional
Sequence of Intestinal-type alkaline phosphatase (Mus musculus, UniProt P24822) (P24822 whole entry): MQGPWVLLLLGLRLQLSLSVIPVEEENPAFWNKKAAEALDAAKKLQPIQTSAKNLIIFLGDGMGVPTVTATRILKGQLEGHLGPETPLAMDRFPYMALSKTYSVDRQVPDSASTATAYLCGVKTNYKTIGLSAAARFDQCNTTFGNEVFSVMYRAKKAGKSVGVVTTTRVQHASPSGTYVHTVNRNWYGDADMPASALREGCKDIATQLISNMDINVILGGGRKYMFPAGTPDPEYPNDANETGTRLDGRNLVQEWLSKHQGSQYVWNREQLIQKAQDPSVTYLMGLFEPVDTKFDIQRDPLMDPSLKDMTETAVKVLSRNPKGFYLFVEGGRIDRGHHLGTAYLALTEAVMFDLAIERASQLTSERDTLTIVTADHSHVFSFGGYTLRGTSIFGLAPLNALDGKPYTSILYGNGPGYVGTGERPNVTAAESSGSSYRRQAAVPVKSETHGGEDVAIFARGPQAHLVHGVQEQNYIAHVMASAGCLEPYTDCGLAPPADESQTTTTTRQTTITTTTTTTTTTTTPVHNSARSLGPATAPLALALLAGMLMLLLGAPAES

[10] = molecular target: T2, Alkaline phosphatase, tissue-nonspecific isozyme (Homo sapiens, UniProt P05186); assay: TNAP enzyme inhibition by screening hits, dose response, selectivity assay for mouse IAP inhibitor project, biochemical, human TNAP, uHTS hits (AID 488906); format: functional
T2 sequence (P05186 whole entry): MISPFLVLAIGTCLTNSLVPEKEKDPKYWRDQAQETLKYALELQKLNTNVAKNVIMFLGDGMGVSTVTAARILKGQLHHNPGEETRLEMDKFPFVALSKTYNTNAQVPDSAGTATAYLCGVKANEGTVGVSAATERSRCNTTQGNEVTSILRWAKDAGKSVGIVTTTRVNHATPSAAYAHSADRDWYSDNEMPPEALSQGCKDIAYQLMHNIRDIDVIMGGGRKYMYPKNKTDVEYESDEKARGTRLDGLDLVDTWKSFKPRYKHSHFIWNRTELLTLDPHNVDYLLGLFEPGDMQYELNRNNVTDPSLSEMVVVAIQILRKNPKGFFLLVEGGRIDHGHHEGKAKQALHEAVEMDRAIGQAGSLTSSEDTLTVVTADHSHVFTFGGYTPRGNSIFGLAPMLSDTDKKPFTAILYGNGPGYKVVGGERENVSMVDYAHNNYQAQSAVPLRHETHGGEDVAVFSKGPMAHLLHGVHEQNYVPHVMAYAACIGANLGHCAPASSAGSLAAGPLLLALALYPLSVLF

[11] = molecular target: Intestinal-type alkaline phosphatase (Homo sapiens, UniProt P09923); assay: inhibition of human intestinal alkaline phosphatase – biochemical, dose response (AID 488876); format: functional
Sequence of Intestinal-type alkaline phosphatase (Homo sapiens, UniProt P09923) (P09923 whole entry): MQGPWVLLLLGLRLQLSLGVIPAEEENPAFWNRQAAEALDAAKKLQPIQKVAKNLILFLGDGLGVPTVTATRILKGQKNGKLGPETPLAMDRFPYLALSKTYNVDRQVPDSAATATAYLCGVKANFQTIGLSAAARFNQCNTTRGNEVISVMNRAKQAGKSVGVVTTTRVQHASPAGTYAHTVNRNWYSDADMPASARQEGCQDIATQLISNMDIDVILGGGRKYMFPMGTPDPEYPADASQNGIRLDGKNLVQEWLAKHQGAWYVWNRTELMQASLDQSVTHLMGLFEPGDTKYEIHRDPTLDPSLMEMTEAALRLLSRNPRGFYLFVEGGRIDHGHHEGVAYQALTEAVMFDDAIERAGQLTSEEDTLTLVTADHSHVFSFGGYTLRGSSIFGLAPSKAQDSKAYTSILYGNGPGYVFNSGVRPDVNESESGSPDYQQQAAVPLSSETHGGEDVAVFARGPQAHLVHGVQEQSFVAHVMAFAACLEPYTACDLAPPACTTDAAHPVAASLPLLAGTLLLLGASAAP

Escherichia coli [12] = assay: microbe, parasite or virus in culture; remark: listed apart in the source
[13] = molecular target: T3, RNA-binding protein pos-1 (Caenorhabditis elegans, UniProt G5EF15); assay: disruptors of C. elegans POS-1 RNA interaction – biochemical, fluorescence polarization, dose response (AID 1964);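 further: purified POS-1 fused to maltose binding protein made in E. coli; potency of compounds blocking POS-1 binding to fluorescent RNA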
T3 sequence (G5EF15 whole entry): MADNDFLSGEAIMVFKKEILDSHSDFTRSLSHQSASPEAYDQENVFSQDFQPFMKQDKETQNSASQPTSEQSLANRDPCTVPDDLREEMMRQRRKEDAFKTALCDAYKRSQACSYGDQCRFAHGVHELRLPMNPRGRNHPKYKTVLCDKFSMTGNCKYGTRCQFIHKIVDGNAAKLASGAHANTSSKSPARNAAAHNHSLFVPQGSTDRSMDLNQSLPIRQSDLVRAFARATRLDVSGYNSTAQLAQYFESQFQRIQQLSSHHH

[14] = molecular target: Peroxisome proliferator-activated receptor gamma/Nuclear receptor coactivator 1 (Homo sapiens, UniProt P37231); assay: (§1) TR-FRET dose response biochemical High Throughput Screening assay for agonists of the steroid receptor coactivator 1 (SRC-1) recruitment by the peroxisome proliferator-activated receptor gamma (PPAR gamma): non-selective agonists. [Related pubchem assays (depositor defined):AID1300, AID1808, AID504735, AID631]; format: protein assay
Sequence of Peroxisome proliferator-activated receptor gamma/Nuclear receptor coactivator 1 (P37231 whole entry): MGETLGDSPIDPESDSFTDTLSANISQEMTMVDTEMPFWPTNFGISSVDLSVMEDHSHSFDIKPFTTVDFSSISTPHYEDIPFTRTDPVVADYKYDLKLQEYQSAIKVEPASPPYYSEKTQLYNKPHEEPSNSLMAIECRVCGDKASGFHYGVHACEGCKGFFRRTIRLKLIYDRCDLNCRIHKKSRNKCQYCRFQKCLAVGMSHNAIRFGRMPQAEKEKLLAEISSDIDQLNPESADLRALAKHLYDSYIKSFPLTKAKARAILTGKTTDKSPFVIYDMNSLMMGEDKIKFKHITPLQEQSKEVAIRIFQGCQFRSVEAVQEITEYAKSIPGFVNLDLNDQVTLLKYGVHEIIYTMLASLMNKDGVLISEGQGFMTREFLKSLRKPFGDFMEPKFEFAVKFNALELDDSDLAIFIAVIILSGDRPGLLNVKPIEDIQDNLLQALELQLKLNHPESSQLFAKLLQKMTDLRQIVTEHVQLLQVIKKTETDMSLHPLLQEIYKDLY
Sequence of Peroxisome proliferator-activated receptor gamma/Nuclear receptor coactivator 1 (Q15788 whole entry, further chain): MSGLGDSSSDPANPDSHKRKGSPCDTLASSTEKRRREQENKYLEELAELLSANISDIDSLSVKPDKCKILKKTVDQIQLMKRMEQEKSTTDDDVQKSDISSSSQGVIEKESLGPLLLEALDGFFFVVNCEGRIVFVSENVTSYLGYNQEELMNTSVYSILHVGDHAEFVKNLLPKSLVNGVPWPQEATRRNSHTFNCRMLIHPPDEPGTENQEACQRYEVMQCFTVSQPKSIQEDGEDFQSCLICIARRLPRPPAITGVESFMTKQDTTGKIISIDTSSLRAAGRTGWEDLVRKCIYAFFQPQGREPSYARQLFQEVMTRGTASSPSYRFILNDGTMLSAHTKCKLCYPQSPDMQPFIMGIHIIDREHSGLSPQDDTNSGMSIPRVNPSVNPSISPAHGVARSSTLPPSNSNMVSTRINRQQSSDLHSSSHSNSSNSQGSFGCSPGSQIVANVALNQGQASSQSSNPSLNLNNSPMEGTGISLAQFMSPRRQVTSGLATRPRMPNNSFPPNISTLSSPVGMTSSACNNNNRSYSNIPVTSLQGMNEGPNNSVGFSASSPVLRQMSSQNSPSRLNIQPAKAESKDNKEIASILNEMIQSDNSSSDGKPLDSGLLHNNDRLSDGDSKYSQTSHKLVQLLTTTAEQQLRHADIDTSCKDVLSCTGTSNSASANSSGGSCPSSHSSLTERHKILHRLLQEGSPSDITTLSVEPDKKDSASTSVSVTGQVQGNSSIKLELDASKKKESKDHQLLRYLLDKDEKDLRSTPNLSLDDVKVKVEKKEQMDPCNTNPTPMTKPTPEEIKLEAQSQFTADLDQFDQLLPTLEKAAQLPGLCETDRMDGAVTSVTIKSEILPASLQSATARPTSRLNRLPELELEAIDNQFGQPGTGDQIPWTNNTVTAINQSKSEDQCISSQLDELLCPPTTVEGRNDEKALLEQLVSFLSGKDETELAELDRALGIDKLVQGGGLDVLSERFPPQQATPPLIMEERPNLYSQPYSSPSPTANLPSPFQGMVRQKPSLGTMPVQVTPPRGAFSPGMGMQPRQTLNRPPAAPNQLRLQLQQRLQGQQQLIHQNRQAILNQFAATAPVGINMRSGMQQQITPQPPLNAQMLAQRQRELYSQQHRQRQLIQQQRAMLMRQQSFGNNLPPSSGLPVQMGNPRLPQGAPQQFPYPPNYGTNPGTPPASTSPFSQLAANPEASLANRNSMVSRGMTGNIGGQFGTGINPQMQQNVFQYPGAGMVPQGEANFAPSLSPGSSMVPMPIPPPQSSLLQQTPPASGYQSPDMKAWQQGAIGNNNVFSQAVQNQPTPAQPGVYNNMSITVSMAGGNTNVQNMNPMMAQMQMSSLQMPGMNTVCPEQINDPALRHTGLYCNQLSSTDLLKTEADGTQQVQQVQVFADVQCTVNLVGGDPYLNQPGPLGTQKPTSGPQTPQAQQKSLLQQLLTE

[15] = molecular target: Peroxisome proliferator-activated receptor gamma/Nuclear receptor coactivator 3 (Homo sapiens, UniProt P37231); assay: as §1, with “3 (SRC-3)” for “1 (SRC-1)”, “assays: 1301 (Confirmation screen.), 1048 (Primary screen.)]” for “assays (depositor defined):AID1300, AID1808, AID504735, AID631]”; format: functional
[16] = molecular target: T4, Zinc finger protein mex-5 (Caenorhabditis elegans, UniProt Q9XUB2); assay: potency of MEX-5 RNA-binding blockers – biochemical, C. elegans, fluorescence polarization, dose response (AID 1960)
T4 sequence (Q9XUB2 whole entry): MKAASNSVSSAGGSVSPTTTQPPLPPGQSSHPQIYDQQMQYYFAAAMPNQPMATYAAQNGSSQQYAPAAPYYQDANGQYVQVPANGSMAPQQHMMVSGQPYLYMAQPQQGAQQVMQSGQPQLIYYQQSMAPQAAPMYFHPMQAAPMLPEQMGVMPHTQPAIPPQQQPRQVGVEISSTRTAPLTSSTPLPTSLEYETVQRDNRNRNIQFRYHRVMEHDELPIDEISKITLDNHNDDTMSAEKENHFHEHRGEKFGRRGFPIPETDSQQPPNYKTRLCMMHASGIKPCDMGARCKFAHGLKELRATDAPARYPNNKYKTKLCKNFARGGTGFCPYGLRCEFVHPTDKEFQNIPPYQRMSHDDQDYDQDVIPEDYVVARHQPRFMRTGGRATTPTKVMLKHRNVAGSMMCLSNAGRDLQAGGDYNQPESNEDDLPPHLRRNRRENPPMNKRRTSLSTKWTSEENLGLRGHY

[17] = molecular target: Peroxisome proliferator-activated receptor gamma/Nuclear receptor coactivator 2 (Homo sapiens, UniProt P37231); assay: TR-FRET dose response biochemical High Throughput Screening assay for agonists of the steroid receptor coactivator 2 (SRC-2) recruitment by the peroxisome proliferator-activated receptor gamma (PPAR gamma): non-selective agonists. [Related pubchem assays: 1297, 1032 ]; format: functional
Sequence of Peroxisome proliferator-activated receptor gamma/Nuclear receptor coactivator 2 (P37231 whole entry): as the sequence (P37231 whole entry) above
Sequence of Peroxisome proliferator-activated receptor gamma/Nuclear receptor coactivator 2 (Q15596 whole entry, further chain): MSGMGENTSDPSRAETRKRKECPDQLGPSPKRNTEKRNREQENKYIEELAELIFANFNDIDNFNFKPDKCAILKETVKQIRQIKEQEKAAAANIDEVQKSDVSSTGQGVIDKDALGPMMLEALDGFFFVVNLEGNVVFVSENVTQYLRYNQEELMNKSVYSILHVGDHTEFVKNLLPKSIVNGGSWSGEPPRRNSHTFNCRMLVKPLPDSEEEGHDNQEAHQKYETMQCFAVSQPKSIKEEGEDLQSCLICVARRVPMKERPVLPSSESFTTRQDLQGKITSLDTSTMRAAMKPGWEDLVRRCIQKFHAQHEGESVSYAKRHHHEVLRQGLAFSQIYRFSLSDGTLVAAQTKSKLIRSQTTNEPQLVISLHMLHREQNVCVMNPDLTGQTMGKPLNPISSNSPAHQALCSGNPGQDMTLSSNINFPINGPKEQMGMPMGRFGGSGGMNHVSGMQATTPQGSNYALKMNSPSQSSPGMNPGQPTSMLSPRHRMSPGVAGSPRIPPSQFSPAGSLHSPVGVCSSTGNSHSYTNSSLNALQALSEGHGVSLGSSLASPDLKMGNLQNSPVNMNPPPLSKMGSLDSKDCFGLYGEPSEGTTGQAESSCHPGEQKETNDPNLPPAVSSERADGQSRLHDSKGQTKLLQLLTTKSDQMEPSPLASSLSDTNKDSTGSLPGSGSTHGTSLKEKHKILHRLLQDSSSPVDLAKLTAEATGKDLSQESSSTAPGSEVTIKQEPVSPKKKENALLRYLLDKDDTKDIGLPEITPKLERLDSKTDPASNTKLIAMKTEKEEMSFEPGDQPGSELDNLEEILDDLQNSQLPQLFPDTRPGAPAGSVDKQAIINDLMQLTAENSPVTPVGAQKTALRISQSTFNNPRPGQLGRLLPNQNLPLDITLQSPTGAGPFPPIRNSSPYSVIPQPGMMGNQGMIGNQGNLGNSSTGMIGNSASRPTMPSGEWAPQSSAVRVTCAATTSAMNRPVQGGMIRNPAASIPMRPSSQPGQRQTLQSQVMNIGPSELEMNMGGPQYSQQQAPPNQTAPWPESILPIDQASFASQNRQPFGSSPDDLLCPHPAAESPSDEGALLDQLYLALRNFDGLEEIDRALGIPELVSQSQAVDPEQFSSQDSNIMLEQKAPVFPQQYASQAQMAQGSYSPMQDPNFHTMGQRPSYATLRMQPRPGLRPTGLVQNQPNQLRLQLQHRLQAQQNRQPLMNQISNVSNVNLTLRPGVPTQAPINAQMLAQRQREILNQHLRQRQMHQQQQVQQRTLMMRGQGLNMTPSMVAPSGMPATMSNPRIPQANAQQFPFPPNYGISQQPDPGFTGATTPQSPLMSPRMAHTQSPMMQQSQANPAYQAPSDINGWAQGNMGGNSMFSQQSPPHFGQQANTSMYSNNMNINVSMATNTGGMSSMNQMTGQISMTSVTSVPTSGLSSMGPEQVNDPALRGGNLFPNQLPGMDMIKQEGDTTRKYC

In the case of CCN(CC)c1nc(-c2ccccn2)nc(-c2ccccc2)c1C#N, the EC50 [1] is reported as > 160 µM (inconclusive), the IC50 [2] is reported as 2.71 µM (active) and the IC50 [3] is reported as 3.09 µM (active). The EC50 [4] was > 38 µM (not active), the EC50 [5] was 1.57 µM (active) and the EC50 [6] was 6.71 µM (active).

For O=C(c1ccc(Cl)cc1)C1CCCN(Cc2ccc3c(c2)OCCO3)C1 (stereo unspecified), the EC50 [7] was > 195 µM (not active) and the AC50 (Escherichia coli [8]) was 190 µM (active).

In the case of N=C(NOC(=O)c1ccc2c(c1)OCO2)c1ccc(Cl)cc1, the AC50 (HeLa) is reported as 69 µM (active).

For COc1cc(C(=O)NN2C(=O)/C(=C3\C(=O)Nc4ccccc43)SC2=S)ccc1O, the IC50 [9] was 6.07 µM (active), the IC50 [10] was 22.2 µM (active) and the IC50 [11] was > 100 µM (inactive).

With O=C(CS(=O)(=O)c1ccc(Cl)c(Cl)c1)Nc1ccccc1Cl the AC50 (Escherichia coli [12]) was 47.2 µM (active) and the AC50 (Escherichia coli [8]) was 300 µM (active).

For COc1cccc(C2C(C(=O)c3cc4cccc(OC)c4o3)=C(O)C(=O)N2c2cc(C)on2)c1OC (stereo unspecified), the EC50 [13] was > 300 µM (not active), the EC50 [14] was > 79.4 µM (inactive) and the EC50 [15] was > 79.4 µM (not active). The EC50 [16] was > 300 µM (not active) and the EC50 [17] was 19.6 µM (not active).

With NS(=O)(=O)c1ccc(CCNc2ncnc3sccc23)cc1 the IC50 [2] was 2.01 µM (active) and the IC50 [3] was 1.06 µM (active).
